Test results from patent US20110124626A1, “BENZAZEPINE DERIVATIVES AND THEIR USE AS HISTAMINE H3 ANTAGONISTS” (TAKEDA PHARMACEUTICAL COMPANY LIMITED, priority 2008, published 2011).

Assays:
[1] = molecular target: T1, human H3 receptor (Homo sapiens, UniProt Q9Y5N1); test: In vitro H3 binding assay (3H-N-α-methyl-histamine competition binding); conditions: membranes of CHO-K1 cells expressing human H3 receptor; 2 nM 3H-NαMH; read-out: hH3 binding IC50
T1 construct: expressed in transfected cells
T1 sequence (Q9Y5N1 whole entry): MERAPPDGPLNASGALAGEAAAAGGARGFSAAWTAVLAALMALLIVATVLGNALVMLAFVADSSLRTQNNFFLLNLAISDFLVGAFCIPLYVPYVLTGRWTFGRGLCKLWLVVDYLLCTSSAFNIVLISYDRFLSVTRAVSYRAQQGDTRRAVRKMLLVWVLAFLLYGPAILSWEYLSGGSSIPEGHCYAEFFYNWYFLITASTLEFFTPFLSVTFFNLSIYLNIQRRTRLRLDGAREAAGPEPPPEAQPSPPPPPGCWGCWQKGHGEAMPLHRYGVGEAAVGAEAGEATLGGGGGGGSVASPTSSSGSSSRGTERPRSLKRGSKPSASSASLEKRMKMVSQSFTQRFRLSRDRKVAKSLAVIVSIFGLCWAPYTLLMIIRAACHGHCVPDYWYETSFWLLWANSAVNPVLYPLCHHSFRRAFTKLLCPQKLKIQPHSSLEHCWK
Experimental: The ability of compounds to bind to the H3 receptor was determined by measuring the reduction in tritiated N-α-methyl-histamine (^3H—NαMH) binding in a competition binding assay. Changes in the levels of bound radio-label were monitored by scintillation counting with a Trilux Microbeta (Perkin Elmer).
Membranes were prepared from CHO-K1 cells stably expressing human H3 receptor; routinely grown as monolayers in Ham's F12 medium (Invitrogen) supplemented with 10% Foetal Clone 111 (Hyclone), 500 μg/ml G418 (Invitrogen), 5 μg/ml blasticidine S (Invivogen) and […] Gentamicin (Sigma) in 5% CO2 at 37° C. Cells were grown to 80-95% confluency, rinsed once with 1×PBS (Invitrogen) and detached by incubating with 1×PBS containing 0.02% EDTA (Sigma) for 10 minutes at room temperature. Cells were collected by centrifugation at 900×g, 4° C. for 10 minutes. Cells were rinsed once with 1×PBS and re-suspended in ice cold homogenisation buffer (50 mM Tris-HCl (pH 7.4), 2.5 mM EDTA, 5 mM MgCl2, 200 mM Sucrose) at 1×10^7 cells/ml and kept on ice. Cells were homogenised on ice and debris removed by centrifugation at 500×g, 4° C. for 5 minutes. The resulting supernatant was centrifuged at 75,600×g, 4° C. for 60 minutes. Membranes were suspended in homogenisation buffer, protein concentration was determined (BCA Protein Assay kit (Pierce)), diluted to 2.2 mg/ml, dispensed into 1 ml aliquots and stored at −80° C.
Membranes were thawed on ice, sonicated with 4 cycles of 20 pulses (50% amplitude, 0.5 pulse) (UP200S Hielscher) on ice, diluted in assay buffer (50 mM Tris-HCl (pH7.4), 5 mM MgCl2) to 62.5 μg/ml. Compound was serially diluted in DMSO before being diluted 1:10 with assay buffer. 5 μg of membrane in 80 μl of assay buffer was added per well of a 96 well polystyrene plate (Corning). […] of compound was added per well. The assay was initiated by the addition of 10 μl of 20 nM ^3H—NαMH per well and incubated for one hour at room temperature with shaking. Total binding was determined in the presence of 1% DMSO and non-specific binding was determined by the inclusion of 1 μM R-α-methyl-histamine (RαMH). Incubations were then filtered through filtermat A (Perkin Elmer) and washed three times with assay buffer. Filtermats were dried at 42° C. for two hours, scintillant added and the level of bound radioactivity determined.
IC50 values for compounds were determined from seven point log scale dose-response studies and represent the concentration of compound required to inhibit 50% of the specific binding of 2 nM ^3H—NαMH (difference between total and non-specific binding). Curves were generated using the average of duplicate wells for each data point and analyzed using nonlinear regression of sigmoidal dose response (variable slope).

[2] = molecular target: T1, human H3 receptor; test: In vitro H3 functional assay (cAMP response element driven luciferase reporter); assay type: cell-based; conditions: CHO(dhfr+)-cre-luc cells expressing human H3 receptor; RαMH 10 nM, forskolin 1 μM; read-out: hH3 functional IC50
Experimental: The functional activity of compounds at the H3 receptor was determined by measuring changes in the level of intracellular cAMP using a cAMP response element driven luciferase reporter assay. The changes in luciferase expression were monitored by a luminescence plate reader, Analyst HT (MDS Analytical). Increases in intracellular cAMP were readily detected upon activation of protein kinase A by forskolin (Sigma) and suppression of this response observed with the application of the H3 receptor agonist RαMH (Sigma).
CHO(dhfr^+)-cre-luc cells stably expressing human H3 receptor were routinely grown as monolayers in Minimal Essential Medium α (MEMα) (Invitrogen) supplemented with 10% dialysed FBS (Hyclone), in 5% CO2 at 37° C. 48 hours prior to assay, cells were seeded in clear-base white walled 384-well plates (Corning) at a density of 5000 cells/well. On the day of assay, growth media was removed and replaced with […] of assay buffer (MEMα, 5 mg/ml fatty acid free BSA (Sigma)) per well. Cells were then incubated for 30 minutes at 37° C., 5% CO2. Compound was serially diluted in DMSO before being diluted 1:10 with assay buffer. 2.5 of compound diluted in assay buffer was added and cells incubated for 5 minutes at 37° C., 5% CO2. 2.5 μl of each reagent was then added in the following order: RαMH (10 nM), isobutylmethylxanthine (1-methyl-3-(2-methylpropyl)-7H-purine-2,6-dione; IBMX) (500 μM) (Sigma) and forskolin (1 μM). Cells were then incubated for 90 minutes at 37° C., 5% CO2, followed by 30 minutes at room temperature. At the end of incubation 25 μl of Steadylite reagent (Perkin Elmer) was added, plates were sealed and placed on a shaker for 5 minutes. The level of light output to determine the level of luciferase expression was then measured.
IC50 values for compounds were determined from ten point half log scale dose-response studies and represent the concentration of compound required to […] 50% inhibition of forskolin stimulated cells in the presence of RαMH alone. Curves were generated using the average of duplicate wells for each data point and analyzed using nonlinear regression of four parameter dose response.

Row | SMILES | IC50 [1] [nM] | IC50 [2] [nM]
1 | Cn1nccc1CNC(=O)c1ccc2c(c1)CCN(C1CCC1)CC2 [Example 1, 3-cyclobutyl-N-((1-methyl-1H-pyrazol-5-yl)methyl)-2,3,4,5-tetrahydro-1H-benzo[d]azepine-7-carboxamide] | 1 | 0.7
2 | O=C(NCC1CCNCC1)c1ccc2c(c1)CCN(C1CCC1)CC2 [Example 5, 3-Cyclobutyl-N-(piperidin-4-ylmethyl)-2,3,4,5-tetrahydro-1H-benzo[d]azepine-7-carboxamide] | 22 | 31
3 | O=C(NCc1cccnc1)c1ccc2c(c1)CCN(C1CCCC1)CC2 [Example 20, 3-Cyclopentyl-N-(pyridin-3-ylmethyl)-2,3,4,5-tetrahydro-1H-benzo[d]azepine-7-carboxamide] | 11 | 3
4 | O=C(NCc1ccccc1)c1ccc2c(c1)CCN(C1CCC1)CC2 [Example 23, N-Benzyl-3-cyclobutyl-2,3,4,5-tetrahydro-1H-benzo[d]azepine-7-carboxamide] | 11 | 2
5 | CNC(=O)c1ccc2c(c1)CCN(C1CCC1)CC2 [Example 24, 3-Cyclobutyl-N-methyl-2,3,4,5-tetrahydro-1H-benzo[d]azepine-7-carboxamide] | 44 | 16
6 | O=C(NC1CCCC1)c1ccc2c(c1)CCN(C1CCC1)CC2 [Example 29, 3-Cyclobutyl-N-cyclopentyl-2,3,4,5-tetrahydro-1H-benzo[d]azepine-7-carboxamide] | 13 | 8
7 | O=C(NCC1CCCCC1)c1ccc2c(c1)CCN(C1CCC1)CC2 [Example 34, 3-Cyclobutyl-N-(cyclohexylmethyl)-2,3,4,5-tetrahydro-1H-benzo[d]azepine-7-carboxamide] | 26 | 5
8 | O=C(NCC1CCOCC1)c1ccc2c(c1)CCN(C1CCC1)CC2 [Example 35, 3-Cyclobutyl-N-((tetrahydro-2H-pyran-4-yl)methyl)-2,3,4,5-tetrahydro-1H-benzo[d]azepine-7-carboxamide] | 11 | 1
9 | O=C(NCC1CCCO1)c1ccc2c(c1)CCN(C1CCC1)CC2 (stereo not drawn) [Example 36, 3-cyclobutyl-N-((tetrahydrofuran-2-yl)methyl)-2,3,4,5-tetrahydro-1H-benzo[d]azepine-7-carboxamide] | 12 | 2
10 | O=C(NCc1ccncc1)c1ccc2c(c1)CCN(C1CCC1)CC2 [Example 40, 3-Cyclobutyl-N-(pyridin-4-ylmethyl)-2,3,4,5-tetrahydro-1H-benzo[d]azepine-7-carboxamide] | 3 | 2
11 | O=C(NCc1cccnc1)c1ccc2c(c1)CCN(C1CCC1)CC2 [Example 42, 3-Cyclobutyl-N-(pyridin-3-ylmethyl)-2,3,4,5-tetrahydro-1H-benzo[d]azepine-7-carboxamide] | 9 | 30
12 | Nc1ncccc1CNC(=O)c1ccc2c(c1)CCN(C1CCC1)CC2 [Example 44, N-((2-Aminopyridin-3-yl)methyl)-3-cyclobutyl-2,3,4,5-tetrahydro-1H-benzo[d]azepine-7-carboxamide] | 14 | 3

Now from value to molecule:

Row | IC50 [1] [nM] | IC50 [2] [nM] | SMILES
13 | 2 | 16 | CCC(=O)N1CCC(CC(O)Cc2ccc3c(c2)CCN(C2CCC2)CC3)CC1 (single isomer, unassigned) [Example 233, 1-(4-(3-(3-cyclobutyl-2,3,4,5-tetrahydro-1H-benzo[d]azepin-7-yl)-2-hydroxypropyl)piperidin-1-yl)propan-1-one]
14 | 11 | 6 | CCC(=O)N1CCC[C@H](CC(O)Cc2ccc3c(c2)CCN(C2CCC2)CC3)C1 (single isomer, unassigned) [Example 251]
15 | 25 | 7 | CCC(=O)N1CCC(C)(C(O)Cc2ccc3c(c2)CCN(C2CCC2)CC3)CC1 (single isomer, unassigned) [Example 257, 1-{4-[2-(3-cyclobutyl-2,3,4,5-tetrahydro-1H-3-benzazepin-7-yl)-1-hydroxyethyl]-4-methylpiperidin-1-yl}propan-1-one]
16 | 51 | 6 | CNC(=O)c1ccc(CNC(=O)c2ccc3c(c2)CCN(C2CCC2)CC3)cc1 [Example 53, 3-Cyclobutyl-N-(4-(methylcarbamoyl)benzyl)-2,3,4,5-tetrahydro-1H-benzo[d]azepine-7-carboxamide]
17 | 6 | 3 | O=C(NCc1cccc(C(F)(F)F)c1)c1ccc2c(c1)CCN(C1CCC1)CC2 [Example 59, 3-Cyclobutyl-N-(3-(trifluoromethyl)benzyl)-2,3,4,5-tetrahydro-1H-benzo[d]azepine-7-carboxamide]
18 | 1 | 3 | O=C(NCc1cccc(-n2cncn2)c1)c1ccc2c(c1)CCN(C1CCC1)CC2 [Example 68, N-(3-(1H-1,2,4-Triazol-1-yl)benzyl)-3-cyclobutyl-2,3,4,5-tetrahydro-1H-benzo[d]azepine-7-carboxamide]
19 | 2 | 0.5 | O=C(NCc1cccc(-c2nccs2)c1)c1ccc2c(c1)CCN(C1CCC1)CC2 [Example 69, 3-Cyclobutyl-N-(3-(thiazol-2-yl)benzyl)-2,3,4,5-tetrahydro-1H-benzo[d]azepine-7-carboxamide]
20 | 5 | 3 | O=C(NCc1cccc(Cn2cccn2)c1)c1ccc2c(c1)CCN(C1CCC1)CC2 [Example 70, N-(3-((1H-Pyrazol-1-yl)methyl)benzyl)-3-cyclobutyl-2,3,4,5-tetrahydro-1H-benzo[d]azepine-7-carboxamide]
21 | 1 | 2 | O=C(NCc1c[nH]c2ccccc12)c1ccc2c(c1)CCN(C1CCC1)CC2 [Example 72, N-((1H-Indol-3-yl)methyl)-3-cyclobutyl-2,3,4,5-tetrahydro-1H-benzo[d]azepine-7-carboxamide]
22 | 12 | 1 | Cn1nc(CNC(=O)c2ccc3c(c2)CCN(C2CCC2)CC3)c2ccccc21 [Example 73, 3-Cyclobutyl-N-((1-methyl-1H-indazol-3-yl)methyl)-2,3,4,5-tetrahydro-1H-benzo[d]azepine-7-carboxamide]
23 | 3 | 1 | O=C(NCc1ccc2[nH]ccc2c1)c1ccc2c(c1)CCN(C1CCC1)CC2 [Example 74, N-((1H-Indol-5-yl)methyl)-3-cyclobutyl-2,3,4,5-tetrahydro-1H-benzo[d]azepine-7-carboxamide]
24 | 3 | 1 | Cn1ccc2c(CNC(=O)c3ccc4c(c3)CCN(C3CCC3)CC4)cccc21 [Example 77, 3-Cyclobutyl-N-((1-methyl-1H-indol-4-yl)methyl)-2,3,4,5-tetrahydro-1H-benzo[d]azepine-7-carboxamide]
